What all share (format): in vivo
In assay [1] the test system is EPHHL. The assay can be described thus: Pre-emergence biological efficacy. To be noted: 312 h, evaluated after 13 days, read-out: damage to plant (100=total damage to plant; 0=no damage to plant), EPHHL. The procedure: (§1) Pre-Emergence Biological Efficacy
(§2) Seeds of weeds and/or crops were sown in standard soil in pots. After cultivation for one day under controlled conditions in a glasshouse (at 24/16° C., day/night; 14 hours light; 65% humidity), the plants were sprayed with an aqueous spray solution derived from the formulation of the technical active ingredient in acetone/water (50:50) solution containing 0.5% Tween 20 (polyoxyethylene sorbitan monolaurate, CAS RN 9005-64-5) to give the desired final dose of test compound.
(§3) The test plants were then grown under controlled conditions in the glasshouse (at 24/16° C., day/night; 14 hours light; 65% humidity) and watered twice daily. After 13 days the test was evaluated (100=total damage to plant; 0=no damage to plant).

For assay [2], the system named is LOLPE. The assay is described as follows: Pre-emergence biological efficacy. To be noted: 312 h, evaluated after 13 days, read-out: damage to plant (100=total damage to plant; 0=no damage to plant), LOLPE. The procedure: as §1, §2, §3
The test system of assay [3] is ECHCG. The assay can be described thus: Pre-emergence biological efficacy. To be noted: Echinochloa crus-galli, 312 h, evaluated after 13 days, read-out: damage to plant (100=total damage to plant; 0=no damage to plant), ECHCG. The procedure: as §1, §2, §3
Assay [4] relates to IPOHE. The assay is described as follows: Pre-emergence biological efficacy. The following applies: Ipomoea hederacea, 312 h, evaluated after 13 days, read-out: damage to plant (100=total damage to plant; 0=no damage to plant), IPOHE. The procedure:
as §1, §2, §3

Assay [5] relates to AMAPA. The assay can be described thus: Pre-emergence biological efficacy. The following applies: 312 h, evaluated after 13 days, read-out: damage to plant (100=total damage to plant; 0=no damage to plant), AMAPA. The protocol:
as §1, §2, §3

The subject of assay [6] is SETFA. The assay can be described thus: Pre-emergence biological efficacy. The following applies: Setaria faberi, 312 h, evaluated after 13 days, read-out: damage to plant (100=total damage to plant; 0=no damage to plant), SETFA. The procedure: as §1, §2, §3
For a further assay, the system named is DIGSA. The assay is described as follows: Post-emergence biological efficacy. To be noted: Digitaria sanguinalis, 312 h, evaluated after 13 days, read-out: damage to plant (100=total damage to plant; 0=no damage to plant), DIGSA. The protocol: (§4) Post-Emergence Biological Efficacy
(§5) Seeds of weeds and/or crops were sown in standard soil in pots. After cultivation for 8 days under controlled conditions in a glasshouse (at 24/16° C., day/night; 14 hours light; 65% humidity), the plants were sprayed with an aqueous spray solution derived from the formulation of the technical active ingredient in acetone/water (50:50) solution containing 0.5% Tween 20 (polyoxyethylene sorbitan monolaurate, CAS RN 9005-64-5) to give the desired final dose of test compound.
(§6) The test plants were then grown on under controlled conditions in a glasshouse (at 24/16° C., day/night; 14 hours light; 65% humidity) and watered twice daily. After 13 days the test was evaluated (100=total damage to plant; 0=no damage to plant).

The subject of assay [7] is EPHHL. The assay is described as follows: Post-emergence biological efficacy. The following applies: 312 h, evaluated after 13 days, read-out: damage to plant (100=total damage to plant; 0=no damage to plant), EPHHL. The protocol: as §4, §5, §6
Assay [8] relates to LOLPE. The assay can be described thus: Post-emergence biological efficacy. To be noted: 312 h, evaluated after 13 days, read-out: damage to plant (100=total damage to plant; 0=no damage to plant), LOLPE. The procedure:
as §4, §5, §6

In assay [9] the test system is ECHCG. The assay can be described thus: Post-emergence biological efficacy. To be noted: Echinochloa crus-galli, 312 h, evaluated after 13 days, read-out: damage to plant (100=total damage to plant; 0=no damage to plant), ECHCG. The procedure: as §4, §5, §6
A further assay has as its system ELEIN. The assay can be described thus: Post-emergence biological efficacy. The following applies: 312 h, evaluated after 13 days, read-out: damage to plant (100=total damage to plant; 0=no damage to plant), ELEIN. The protocol:
as §4, §5, §6

The next assay relates to CHEAL. The assay is described as follows: Post-emergence biological efficacy. To be noted: Chenopodium album, 312 h, evaluated after 13 days, read-out: damage to plant (100=total damage to plant; 0=no damage to plant), CHEAL. The procedure: as §4, §5, §6
The subject of assay [10] is IPOHE. The assay can be described thus: Post-emergence biological efficacy. The following applies: Ipomoea hederacea, 312 h, evaluated after 13 days, read-out: damage to plant (100=total damage to plant; 0=no damage to plant), IPOHE. The procedure: as §4, §5, §6
Assay [11] deals with AMAPA. The assay can be described thus: Post-emergence biological efficacy. To be noted: 312 h, evaluated after 13 days, read-out: damage to plant (100=total damage to plant; 0=no damage to plant), AMAPA. The procedure:
as §4, §5, §6

The test system of assay [12] is SETFA. The assay can be described thus: Post-emergence biological efficacy. To be noted: Setaria faberi, 312 h, evaluated after 13 days, read-out: damage to plant (100=total damage to plant; 0=no damage to plant), SETFA. The procedure: as §4, §5, §6

As for `CCOC(=O)C1(C)CC(c2cc(-n3c(=O)n(C)c(=S)n(C)c3=O)c(Cl)cc2Cl)=NO1` (stereo not drawn) [Compound 58, Ethyl 3-[2,4-dichloro-5-(3,5-dimethyl-2,6-dioxo-4-thioxo-1,3,5-triazinan-1-yl)phenyl]-5-methyl-4H-isoxazole-5-carboxylate], the pest or weed control at 250 g/ha in the assay with EPHHL [1] turned out to be 0%; with LOLPE [2], 0%; in the assay with ECHCG [3], 0%; with IPOHE [4] it was 60%; with AMAPA [5], 90%; in the assay with SETFA [6] it was 0%. The pest or weed control at 250 g/ha in the assay with DIGSA turned out to be 80%; in the assay with EPHHL [7], 70%; with LOLPE [8], 30%; in the assay with ECHCG [9], 90%; in the assay on ELEIN, 90%; in the assay with CHEAL it was 90%. In addition, the pest or weed control at 250 g/ha in the assay on IPOHE [10] was 100%; with AMAPA [11], 90%; in the assay with SETFA [12], 90%.
Regarding `COC(=O)C1(C)ON=C(c2cc(-n3c(=O)n(C)c(=S)n(C)c3=O)c(F)cc2Cl)C1C` (stereo not drawn) [Compound 145, Methyl 3-[2-chloro-5-(3,5-dimethyl-2,6-dioxo-4-thioxo-1,3,5-triazinan-1-yl)-4-fluoro-phenyl]-4,5-dimethyl-4H-isoxazole-5-carboxylate], the pest or weed control at 250 g/ha turned out to be 100% in the assay on EPHHL [1]; 90% in the assay with LOLPE [2]; 90% with ECHCG [3]; 100% with IPOHE [4]; 100% with AMAPA [5]; 100% in the assay with SETFA [6]. In addition, the pest or weed control at 250 g/ha in the assay on DIGSA, in the assay on EPHHL [7], in the assay with LOLPE [8], in the assay with ECHCG [9], in the assay on ELEIN and with CHEAL was 100% throughout. Also, the pest or weed control at 250 g/ha in the assay with IPOHE [10], with AMAPA [11] and in the assay with SETFA [12] was 100% throughout.
With `Cn1c(=S)n(C)c(=O)n(-c2cc(C3=NOC(C)(C(=O)NS(C)(=O)=O)C3)c(Cl)cc2F)c1=O` (stereo not drawn) [Compound 284, 3-[2-chloro-5-(3,5-dimethyl-2,6-dioxo-4-thioxo-1,3,5-triazinan-1-yl)-4-fluoro-phenyl]-5-methyl-N-methylsulfonyl-4H-isoxazole-5-carboxamide], the pest or weed control at 250 g/ha came out at 100% with EPHHL [1]; 40% with LOLPE [2]; 30% in the assay on ECHCG [3]; 100% with IPOHE [4]; 100% in the assay with AMAPA [5]; 70% in the assay on SETFA [6]. Also, the pest or weed control at 250 g/ha was determined as 100% in the assay with DIGSA; 90% in the assay with EPHHL [7]; 80% in the assay with LOLPE [8]; 100% in the assay with ECHCG [9]; 100% in the assay with ELEIN; 100% with CHEAL. Further, the pest or weed control at 250 g/ha in the assay on IPOHE [10], with AMAPA [11] and with SETFA [12] was 100% throughout.

For the origin of these results see US12202821B2, “Herbicidal compounds” (SYNGENTA CROP PROTECTION AG, priority 2019, dated 2025).
